From US6632828B2, “Substituted imidazole neuropeptide Y Y5 receptor antagonists” (Schering Corporation, priority 1999, dated 2003)

target: T1, Human NPY Y5 receptors (Homo sapiens, UniProt Q15761); test: NPY Receptor Binding Assay; settings: Human NPY Y5 receptors expressed in CHO cells; 0.1 nM 125I-peptide YY; read-out: r/h Y5 Ki
T1 construct: expressed in transfected cells; host or cells: CHO cells (membrane protein)
T1 sequence (Q15761 1-445): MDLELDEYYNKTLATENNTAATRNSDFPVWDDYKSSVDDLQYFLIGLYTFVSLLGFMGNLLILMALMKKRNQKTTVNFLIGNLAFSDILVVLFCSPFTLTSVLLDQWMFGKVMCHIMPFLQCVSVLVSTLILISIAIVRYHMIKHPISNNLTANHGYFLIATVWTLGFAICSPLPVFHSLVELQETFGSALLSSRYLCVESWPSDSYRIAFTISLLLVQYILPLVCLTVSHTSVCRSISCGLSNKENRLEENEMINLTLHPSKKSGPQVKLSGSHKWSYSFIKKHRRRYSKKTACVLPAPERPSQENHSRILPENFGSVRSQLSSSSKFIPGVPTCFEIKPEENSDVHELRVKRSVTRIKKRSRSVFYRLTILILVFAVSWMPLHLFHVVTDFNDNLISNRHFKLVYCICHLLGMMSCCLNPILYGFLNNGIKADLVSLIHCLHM
Description: NPY Receptor Binding Assay
Human NPY Y5 receptors were expressed in CHO cells. Binding assays were performed in 50 mM HEPES, pH 7.2, 2.5 mM CaCl2, 1 mM MgCl2 and 0.1% BSA containing 5-10 μg of membrane protein and 0.1 nM ^125I-peptide YY in a total volume of 200 μl. Non-specific binding was determined in the presence of 1 uM NPY. The reaction mixtures were incubated for 90 minutes at room temperature, then filtered through Millipore MAFC glass fiber filter plates which had been pre-soaked in 0.5% polyethyleneimine. The filters were washed with phosphate-buffered saline, and radioactivity was measured in a Packard TopCount scintillation counter.

| SMILES | Ki |
| --- | --- |
| FC(F)(F)c1cccc(-c2c[nH]c(-c3cccc(CN4CCCCC4)c3)n2)c1 [Example 3] | 17 nM |
| COC(=O)c1cccc(-c2nc(-c3cccc(C(F)(F)F)c3)c[nH]2)c1 [Example 1B] | 52 nM |
| FC(F)(F)c1cccc(-c2c[nH]c(C3=CCN(c4ccccn4)CC3)n2)c1 [Example 19] | 1.7 nM |
| FC(F)(F)c1cccc(-c2c[nH]c(N3CCN(c4ccccn4)CC3)n2)c1 [Example 26] | 1.4 nM |

More lines, in order of falling Ki, values ahead:

| Ki | SMILES |
| --- | --- |
| 315 nM | O=C(Nc1ccccc1)c1cccc(-c2nc(-c3cccc(C(F)(F)F)c3)c[nH]2)c1 [Example 2A] |
| 63 nM | O=C(Nc1cccc(-c2nc(-c3cccc(C(F)(F)F)c3)c[nH]2)c1)c1ccccc1 [Example 10A] |
| 3 nM | FC(F)(F)c1cccc(-c2c[nH]c(C34CC5CC(CC(C5)C3)C4)n2)c1 [Example 1A] |
| 2.1 nM | CN(c1cccc(-c2nc(-c3cccc(C(F)(F)F)c3)c[nH]2)c1)S(C)(=O)=O [Example 6A] |
| 2 nM | CS(=O)(=O)N1CCC(c2nc(-c3cc(Cl)cc(Cl)c3)c[nH]2)CC1 [Example 21C] |
| 1.4 nM | CS(=O)(=O)Nc1cccc(-c2nc(-c3cccc(C(F)(F)F)c3)c[nH]2)c1 [Example 5A] |
